{"source": "patent US20180008592A1", "about": "“TREATMENT OF UREMIC PRURITUS” (TREVI THERAPEUTICS, INC., priority 2016, published 2018)", "key": {"[1]": {"system": "renally impaired patients on hemodialysis with moderate or severe uremic pruritus", "experiment": "Same trial: Skindex-10 (itch-related quality of life)", "format": "in vivo, human", "settings": "for Skindex-10 Disease Domain (bothersomeness of itching) [0-18], change from Baseline to the Evaluation Period, mean (SD) / Skindex-10 Mood/emotional distress domain (0-24), change from Baseline to the Evaluation Period, mean (SD) / Skindex-10 Social Functioning Domain [0-18], change from Baseline to the Evaluation Period, mean (SD) / Skindex-10 Total Score [0 (best) to 60 (worst)], change from Baseline to the Evaluation Period, mean (SD): 60 mg BID; for Skindex-10 Mood/emotional distress domain (0-24), change from Baseline to the Evaluation Period, mean / Skindex-10 Social Functioning Domain [0-18], change from Baseline to the Evaluation Period, mean / Skindex-10 Total Score [0 (best) to 60 (worst)], change from Baseline to the Evaluation Period, mean / Skindex-10 Disease Domain (bothersomeness of itching) [0-18], change from Baseline to the Evaluation Period, mean: 120 mg BID", "source_text": "FIG. 8 provides a numerical scale (range, 0-6; anchors at 0 “never bothered” and 6 “always bothered”) (top) used for answering 10 questions used in the assessment of itching-related quality of life (bottom) (Skindex-10).\n(§1) The primary endpoint was the change from Baseline to the Evaluation Period (Study weeks 7 and 8) in the modified intent-to-treat population. Quality of life-related secondary endpoints included change from Day 1 to the Evaluation Period in itching-related quality of life (using the Skindex-10 (FIG. 8)) and itching-related sleep disruption (using the Itch Medical Outcomes Study [Itch MOS] (FIG. 9), SLP-9). The Hospital Anxiety and Depression Score (HADS) used as a general measure of anxiety and depression. All patient-reported outcomes measures were selected based on their prior validation in uremic pruritus patients specifically or in the dialysis population more generally.\n(§2) The primary and quality of life secondary endpoint analyses used a mixed model repeated measures ANCOVA with the main effects of treatment and site and baseline worst itch NRS score as the covariate. The model included time (i.e. Visit) as a factor variable and treatment*time (with placebo as the reference category) with an unstructured covariance structure for repeated measures. Data from all post-baseline visits were used to fit the model. For the primary endpoint, the baseline value was defined as the mean of worst itch daytime and nighttime NRS scores used for satisfying the protocol inclusion criterion #5 (mean worst itching NRS≧4.5 based on a total of 3 daytime and 3 nighttime measurements from 3 dialysis visits). For the secondary endpoints, the baseline value was based on a measurement taken on Study Day 1, prior to randomization. A pre-specified step-down procedure was used. The first comparison was of nalbuphine 120 mg BID dose vs. placebo. If the first comparison was significant at the p<0.05 level, then the comparison between the nalbuphine 60 mg BID dose vs. placebo would be conducted. Patients with a 15% or greater response in worst itch NRS were analyzed using a Cochran-Mantel-Haenszel (CMH) test. Analysis of the Itch MOS utilized the SLP-9 scoring algorithm.\n(§3) In the first 2 weeks of treatment, patients were blindly force-titrated to their assigned target dose, with the patients in the active arms reaching a dose of 60 mg BID (NAL 60) after the first week and, for those in the high dose group, to 120 mg BID (NAL 120) after the second week. Study drug was administered in blister cards containing the labeled morning and evening doses for each day of the week. Subsequently, patients continued stable doses of the study drug for an additional 6 weeks and were then washed off study drug and followed for another 2 weeks for itching intensity and safety. No down-titration was permitted during the study, although patients who missed 6 or more consecutive doses during the Stable Dose Period (Weeks 3-8) could, with the Medical Monitor's approval, re-start treatment with blinded re-titration of just the morning or evening dose for 3 days before returning to the original dose. Patients were allowed to remain on their background antipruritic medications such as antihistamines and the use of these medications and indication for treatment was collected."}, "[2]": {"system": "renally impaired patients on hemodialysis with moderate or severe uremic pruritus", "experiment": "Same trial: Itch MOS (itch-related sleep disruption)", "format": "in vivo, human", "settings": "for patients with sleep latency (time to fall asleep) >30 minutes, Itch MOS: last treatment week (Week 8)", "source_text": "FIG. 9 provides 12 questions and a numerical scale (range, 1-6; anchors at 1 “All of the time”; 2 “Most of the time”; 3 “A good bit of the time”; 4 “Some of the time”; 5 “A little of the time”; and 6 “None of the time”) used in assessing itching-related sleep disruption (Itch Medical Outcomes Study (MOS) Questions).\nas §1, §2, §3"}, "[3]": {"settings": "severe subgroup (Baseline NRS ≧ 7), N = 61"}, "[4]": {"settings": "severe subgroup (Baseline NRS ≧ 7), N = 63"}}}
{"compound": "Cl.Oc1ccc2c3c1O[C@H]1[C@@H](O)CC[C@@]4(O)[C@@H](C2)N(CC2CCC2)CC[C@]314", "note": "[Nalbuphine, 17-(cyclobutylmethyl)-4,5α-epoxymorphinian-3,6α, 14-triol, hydrochloride]", "values": [{"measurement": "Skindex-10 Disease Domain (bothersomeness of itching) [0-18], change from Baseline to the Evaluation Period, mean (SD)", "setting": "[1]; N = 128", "result": "−5.3 (4.9)"}, {"measurement": "Skindex-10 Mood/emotional distress domain (0-24), change from Baseline to the Evaluation Period, mean (SD)", "setting": "[1]; N = 128", "result": "−4.4 (5.0)"}, {"measurement": "Skindex-10 Social Functioning Domain [0-18], change from Baseline to the Evaluation Period, mean (SD)", "setting": "[1]; N = 128", "result": "−4.2 (6.7)"}, {"measurement": "Skindex-10 Total Score [0 (best) to 60 (worst)], change from Baseline to the Evaluation Period, mean (SD)", "setting": "[1]; N = 128", "result": "−13.8 (14.6)"}, {"measurement": "Skindex-10 Mood/emotional distress domain (0-24), change from Baseline to the Evaluation Period, mean", "setting": "[1]; N = 120", "result": "−5.2"}, {"measurement": "Skindex-10 Social Functioning Domain [0-18], change from Baseline to the Evaluation Period, mean", "setting": "[1]; N = 120", "result": "−5.4"}, {"measurement": "Skindex-10 Total Score [0 (best) to 60 (worst)], change from Baseline to the Evaluation Period, mean", "setting": "[1]; N = 120", "result": "−17.0"}, {"measurement": "Skindex-10 Disease Domain (bothersomeness of itching) [0-18], change from Baseline to the Evaluation Period, mean", "setting": "[1]; N = 120, p < 0.1", "result": "−6.4"}, {"measurement": "Skindex-10 Disease Domain (bothersomeness of itching) [0-18], change from Baseline to the Evaluation Period, mean (SD)", "setting": "[1]; [3]", "result": "−6.2 (5.1)"}, {"measurement": "Skindex-10 Mood/emotional distress domain (0-24), change from Baseline to the Evaluation Period, mean (SD)", "setting": "[1]; [3]", "result": "−5.1 (5.0)"}, {"measurement": "Skindex-10 Social Functioning Domain [0-18], change from Baseline to the Evaluation Period, mean (SD)", "setting": "[1]; [3]", "result": "−5.1 (7.04)"}, {"measurement": "Skindex-10 Total Score [0 (best) to 60 (worst)], change from Baseline to the Evaluation Period, mean (SD)", "setting": "[1]; [3]", "result": "−16.4 (15.1)"}, {"measurement": "Skindex-10 Social Functioning Domain [0-18], change from Baseline to the Evaluation Period, mean", "setting": "[1]; [4]", "result": "−7.1"}, {"measurement": "Skindex-10 Total Score [0 (best) to 60 (worst)], change from Baseline to the Evaluation Period, mean", "setting": "[1]; [4]", "result": "−20.5"}, {"measurement": "Skindex-10 Disease Domain (bothersomeness of itching) [0-18], change from Baseline to the Evaluation Period, mean", "setting": "[1]; severe subgroup (Baseline NRS ≧ 7), N = 63, p < 0.05", "result": "−7.1"}, {"measurement": "Skindex-10 Mood/emotional distress domain (0-24), change from Baseline to the Evaluation Period, mean", "setting": "[1]; severe subgroup (Baseline NRS ≧ 7), N = 63, p < 0.1", "result": "−6.4"}, {"measurement": "Itch MOS [0 (best) to 60 (worst)], change from Baseline to the Evaluation Period, mean (SD)", "setting": "[2]; 60 mg BID, N = 128", "result": "−13.9 (17.6)"}, {"measurement": "patients with sleep latency (time to fall asleep) >30 minutes, Itch MOS", "setting": "[2]; 60 mg BID, 68.7% at baseline", "result": 35.9, "unit": "%"}, {"measurement": "Itch MOS [0 (best) to 60 (worst)], change from Baseline to the Evaluation Period, mean", "setting": "[2]; 120 mg BID, N = 120, p < 0.1", "result": "−16.0"}, {"measurement": "patients with sleep latency (time to fall asleep) >30 minutes, Itch MOS", "setting": "[2]; 120 mg BID, 67.5% at baseline", "result": 25.0, "unit": "%"}, {"measurement": "Itch MOS (Itch-Related Sleep Disruption) [0 (best) to 60 (worst)], change from Baseline to the Evaluation Period, mean (SD)", "setting": "[2]; severe subgroup (Baseline NRS ≧ 7), 60 mg BID, N = 61", "result": "−15.0 (17.7)"}, {"measurement": "Itch MOS (Itch-Related Sleep Disruption) [0 (best) to 60 (worst)], change from Baseline to the Evaluation Period, mean", "setting": "[2]; severe subgroup (Baseline NRS ≧ 7), 120 mg BID, N = 63, p < 0.01", "result": "−21.6"}, {"measurement": "Sleep disruption due to itching", "setting": "[2]; severe subgroup (Baseline NRS ≧7.0), 120 mg BID, p=0.007", "result": "improved significantly relative to placebo"}]}
